Assay: mn = molality of the nth substance listed, in mol/kg
Settings: 298.15 K, 101 kPa, Liquid, Rudolph densimeter

[Cl-].[Cl-].[Mg+2] [magnesium chloride] + CO
Settings	mass density [kg/m3]
m1 = 0.0105	788.19
m1 = 0.021	789.37
m1 = 0.0316	790.72
m1 = 0.0422	791.97
m1 = 0.0528	793.43
m1 = 0.0581	794.28
m1 = 0.0634	795.32
m1 = 0.0687	796.28
m1 = 0.074	796.94
m1 = 0.0794	797.82
m1 = 0.0847	798.59
m1 = 0.09	799.4
m1 = 0.0954	800.16

O=[N+]([O-])[O-].O=[N+]([O-])[O-].[Mg+2] [magnesium nitrate] + CO
Settings	mass density [kg/m3]
m1 = 0.0067	787.75
m1 = 0.0135	788.44
m1 = 0.0203	789.09
m1 = 0.0271	789.77
m1 = 0.0339	790.43
m1 = 0.0373	790.75
m1 = 0.0407	791.07
m1 = 0.0441	791.39
m1 = 0.0475	791.72
m1 = 0.051	792.03
m1 = 0.0544	792.33
m1 = 0.0578	792.66
m1 = 0.0612	792.95
m1 = 0.0647	793.26
m1 = 0.0681	793.56

O=[N+]([O-])[O-].O=[N+]([O-])[O-].[Zn+2] [nitric acid, zinc salt] + CO
Settings	mass density [kg/m3]
m1 = 0.0053	787.73
m1 = 0.0106	788.43
m1 = 0.0159	789.11
m1 = 0.0212	789.81
m1 = 0.0265	790.47
m1 = 0.0292	790.79
m1 = 0.0319	791.13
m1 = 0.0346	791.46
m1 = 0.0372	791.79
m1 = 0.0399	792.11
m1 = 0.0426	792.44
m1 = 0.0453	792.76
m1 = 0.048	793.07
m1 = 0.0507	793.39
m1 = 0.0533	793.72
m1 = 0.0804	796.87

— the NIST ThermoML archive (doi:10.1016/j.fluid.2014.07.005)
